Assay results reported in patent US5045458A, “Antibiotics PB-6042S” (Shionogi & Co., Ltd., priority 1988, dated 1991).
Values after ≈ are worked out from the molar mass of the structure shown. Read-outs that look alike come from different tables or passages of the source.

Columns and labels:
[1] = test system: P. asaccharolyticus ATCC14963; assay: MIC against anaerobic bacteria; assay type: cell-based; details: Peptoniphilus asaccharolyticus, ATCC14963
P. anaerobius B-38 = assay: MIC against anaerobic bacteria; assay type: cell-based; details: Peptostreptococcus anaerobius, B38
P. prevotii ATCC9321 = assay: MIC against anaerobic bacteria; assay type: cell-based; details: Anaerococcus prevotii, ATCC9321
P. micros VPI5464-1 = assay: MIC against anaerobic bacteria; assay type: cell-based; details: Parvimonas micra, VPI54641
[2] = test system: S. constellatus ATCC27823; assay: MIC against anaerobic bacteria; assay type: cell-based; details: Streptococcus constellatus
E. lentum II-1 = assay: MIC against anaerobic bacteria; assay type: cell-based; details: Eggerthella lenta, II1
E. limosum ATCC8486 = assay: MIC against anaerobic bacteria; assay type: cell-based; details: Eubacterium limosum; E. limosum ATCC8486; read-out: MIC
E. aerofaciens ATCC25986 = assay: MIC against anaerobic bacteria; assay type: cell-based; details: Collinsella aerofaciens, ATCC25986
P. acens ATCC11827 = assay: MIC against anaerobic bacteria; assay type: cell-based
B. adolescentis JCM1250 = assay: MIC against anaerobic bacteria; assay type: cell-based; details: Bifidobacterium adolescentis, JCM1250
B. bifidum JCM1122 = assay: MIC against anaerobic bacteria; assay type: cell-based; details: Bifidobacterium bifidum
B. longum ATCC15707 = assay: MIC against anaerobic bacteria; assay type: cell-based; details: Bifidobacterium longum
L. plantarum JCM1100 = assay: MIC against anaerobic bacteria; assay type: cell-based; details: Lactiplantibacillus plantarum
L. ruminis ATCC27780 = assay: MIC against anaerobic bacteria; assay type: cell-based; details: L. ruminis ATCC27780; read-out: MIC
C. perfringens SAKAI = assay: microbe, parasite or virus in culture; assay type: cell-based; details: Clostridium perfringens
C. perfringens ATCC13124 = assay: microbe, parasite or virus in culture; assay type: cell-based; details: Clostridium perfringens
C. difficile ATCC17857 = assay: MIC against anaerobic bacteria; assay type: cell-based; details: Clostridioides difficile
B. fragilis GM7000 = assay: MIC against anaerobic bacteria; assay type: cell-based; details: Bacteroides fragilis; B. fragilis GM7000; read-out: MIC
B. fragilis ATCC25285 = assay: MIC against anaerobic bacteria; assay type: cell-based; details: Bacteroides fragilis; B. fragilis ATCC25285; read-out: MIC
[3] = test system: B. thetaiotaomicron WAL3304; assay: MIC against anaerobic bacteria; assay type: cell-based; details: Bacteroides thetaiotaomicron; B. thetaiotaomicron WAL3304; read-out: MIC
B. vulgatus ATCC29327 = assay: MIC against anaerobic bacteria; assay type: cell-based; details: Phocaeicola vulgatus; B. vulgatus ATCC29327; read-out: MIC
B. distasonis JU-11-1 = assay: MIC against anaerobic bacteria; assay type: cell-based; details: Parabacteroides distasonis, JU111; B. distasonis JU-11-1; read-out: MIC
B. ovatus 2505 = assay: MIC against anaerobic bacteria; assay type: cell-based; details: Bacteroides ovatus; B. ovatus 2505; read-out: MIC
[4] = test system: B. melaninogenicus GAI0413; assay: MIC against anaerobic bacteria; assay type: cell-based
F. varium ATCC8501 = assay: MIC against anaerobic bacteria; assay type: cell-based; details: Fusobacterium varium
F. necrophorum ATCC25286 = assay: MIC against anaerobic bacteria; assay type: cell-based; details: Fusobacterium necrophorum
F. nucleatum ATCC25586 = assay: MIC against anaerobic bacteria; assay type: cell-based; details: Fusobacterium nucleatum
F. mortiferum ATCC9817 = assay: MIC against anaerobic bacteria; assay type: cell-based; details: Fusobacterium mortiferum
anaerobic bacteria = assay: antibacterial activity against anaerobic bacteria (summary); assay type: cell-based; details: in words
[5] = filter paper electrophoresis and bioautography (acidic property); assay type: physicochemical
Source text: Other physicochemical properties of PB-6042s in the form of sodium salt are listed below.

S. aureus FDA JC-1 = assay: MIC against aerobic bacteria; details: Staphylococcus aureus, FDAJC1
S. aureus SR14(R) = assay: MIC against aerobic bacteria; details: Staphylococcus aureus
S. pyogenes C-203 = assay: MIC against aerobic bacteria; details: Streptococcus pyogenes, C203
S. pneumoniae TYPE 1 = assay: MIC against aerobic bacteria; details: Streptococcus pneumoniae, TYPE1
E. coli NIHJ JC-2 = assay: MIC against aerobic bacteria; details: Escherichia coli, NIHJJC2
K. pneumoniae SR1 = assay: MIC against aerobic bacteria; details: Klebsiella pneumoniae
P. vulgaris CN-329 = assay: MIC against aerobic bacteria; details: Proteus vulgaris, CN329
P. aeruginosa A25619 = assay: MIC against aerobic bacteria; details: Pseudomonas aeruginosa

C=C1OC(=O)C(C(=O)CCCCCCCCC)=C1O [PB-6042A]
MIC [1]: 12.5 µg/mL (≈ 46.9 µM) | MIC (P. anaerobius B-38): 3.13 µg/mL (≈ 11.8 µM) | MIC (P. prevotii ATCC9321): 12.5 µg/mL (≈ 46.9 µM) | MIC (P. micros VPI5464-1): 1.56 µg/mL (≈ 5.86 µM) | MIC [2]: 3.13 µg/mL (≈ 11.8 µM) | MIC (E. lentum II-1; E. lentum II-1, read-out: MIC): 6.25 µg/mL (≈ 23.5 µM) | MIC (E. limosum ATCC8486): 6.25 µg/mL (≈ 23.5 µM) | MIC (E. aerofaciens ATCC25986): 12.5 µg/mL (≈ 46.9 µM) | MIC (P. acens ATCC11827): 3.13 µg/mL (≈ 11.8 µM) | MIC (B. adolescentis JCM1250): 12.5 µg/mL (≈ 46.9 µM) | MIC (B. bifidum JCM1122; JCM1122): 12.5 µg/mL (≈ 46.9 µM) | MIC (B. longum ATCC15707; B. longum ATCC15707, read-out: MIC): 6.25 µg/mL (≈ 23.5 µM) | MIC (L. plantarum JCM1100; JCM1100): 12.5 µg/mL (≈ 46.9 µM) | MIC (L. ruminis ATCC27780): 6.25 µg/mL (≈ 23.5 µM) | MIC (C. perfringens SAKAI): 12.5 µg/mL (≈ 46.9 µM) | MIC (C. perfringens ATCC13124): 12.5 µg/mL (≈ 46.9 µM) | MIC (C. difficile ATCC17857): 3.13 µg/mL (≈ 11.8 µM) | MIC (B. fragilis GM7000): 3.13 µg/mL (≈ 11.8 µM) | MIC (B. fragilis ATCC25285): 3.13 µg/mL (≈ 11.8 µM) | MIC [3]: 3.13 µg/mL (≈ 11.8 µM) | MIC (B. vulgatus ATCC29327): 3.13 µg/mL (≈ 11.8 µM) | MIC (B. distasonis JU-11-1): 3.13 µg/mL (≈ 11.8 µM) | MIC (B. ovatus 2505): 3.13 µg/mL (≈ 11.8 µM) | MIC ([4]; B. melaninogenicus GAI0413, read-out: MIC): 6.25 µg/mL (≈ 23.5 µM) | MIC (F. varium ATCC8501): > 100 µg/mL | MIC (F. necrophorum ATCC25286): 6.25 µg/mL (≈ 23.5 µM) | MIC (F. nucleatum ATCC25586): 6.25 µg/mL (≈ 23.5 µM) | MIC (F. mortiferum ATCC9817; ATCC9817): 12.5 µg/mL (≈ 46.9 µM) | growth inhibition of anaerobic bacteria (anaerobic bacteria): inhibit the growth of anaerobic bacteria, selectively | acidic property [5]: acidic substances | MIC (S. aureus FDA JC-1): 25 µg/mL (≈ 93.9 µM) | MIC (S. aureus SR14(R)): > 100 µg/mL | MIC (S. pyogenes C-203): 25 µg/mL (≈ 93.9 µM) | MIC (S. pneumoniae TYPE 1): 25 µg/mL (≈ 93.9 µM) | MIC (E. coli NIHJ JC-2): > 100 µg/mL | MIC (K. pneumoniae SR1): > 100 µg/mL | MIC (P. vulgaris CN-329): > 100 µg/mL | MIC (P. aeruginosa A25619): > 100 µg/mL

C=C1OC(=O)C(C(=O)CCC/C=C\CCCCCC)=C1O [PB-6042B]
MIC [1]: 6.25 µg/mL (≈ 21.4 µM) | MIC (P. anaerobius B-38): 3.13 µg/mL (≈ 10.7 µM) | MIC (P. prevotii ATCC9321): 6.25 µg/mL (≈ 21.4 µM) | MIC (P. micros VPI5464-1): 1.56 µg/mL (≈ 5.34 µM) | MIC [2]: 1.56 µg/mL (≈ 5.34 µM) | MIC (E. lentum II-1): 6.25 µg/mL (≈ 21.4 µM) | MIC (E. limosum ATCC8486): 3.13 µg/mL (≈ 10.7 µM) | MIC (E. aerofaciens ATCC25986): 6.25 µg/mL (≈ 21.4 µM) | MIC (P. acens ATCC11827): 3.13 µg/mL (≈ 10.7 µM) | MIC (B. adolescentis JCM1250): 6.25 µg/mL (≈ 21.4 µM) | MIC (B. bifidum JCM1122; B. bifidum JCM1122, read-out: MIC): 12.5 µg/mL (≈ 42.8 µM) | MIC (B. longum ATCC15707; ATCC15707): 6.25 µg/mL (≈ 21.4 µM) | MIC (L. plantarum JCM1100; L. plantarum JCM1100, read-out: MIC): 12.5 µg/mL (≈ 42.8 µM) | MIC (L. ruminis ATCC27780): 3.13 µg/mL (≈ 10.7 µM) | MIC (C. perfringens SAKAI): 6.25 µg/mL (≈ 21.4 µM) | MIC (C. perfringens ATCC13124): 6.25 µg/mL (≈ 21.4 µM) | MIC (C. difficile ATCC17857): 1.56 µg/mL (≈ 5.34 µM) | MIC (B. fragilis GM7000): 3.13 µg/mL (≈ 10.7 µM) | MIC (B. fragilis ATCC25285): 3.13 µg/mL (≈ 10.7 µM) | MIC [3]: 3.13 µg/mL (≈ 10.7 µM) | MIC (B. vulgatus ATCC29327): 3.13 µg/mL (≈ 10.7 µM) | MIC (B. distasonis JU-11-1): 3.13 µg/mL (≈ 10.7 µM) | MIC (B. ovatus 2505): 3.13 µg/mL (≈ 10.7 µM) | MIC ([4]; GAI0413): 6.25 µg/mL (≈ 21.4 µM) | MIC (F. varium ATCC8501): > 100 µg/mL | MIC (F. necrophorum ATCC25286): 12.5 µg/mL (≈ 42.8 µM) | MIC (F. nucleatum ATCC25586): 12.5 µg/mL (≈ 42.8 µM) | MIC (F. mortiferum ATCC9817; F. mortiferum ATCC9817, read-out: MIC): 25 µg/mL (≈ 85.5 µM) | growth inhibition of anaerobic bacteria (anaerobic bacteria): inhibit the growth of anaerobic bacteria, selectively | acidic property [5]: acidic substances | MIC (S. aureus FDA JC-1): 12.5 µg/mL (≈ 42.8 µM) | MIC (S. aureus SR14(R)): 12.5 µg/mL (≈ 42.8 µM) | MIC (S. pyogenes C-203): 12.5 µg/mL (≈ 42.8 µM) | MIC (S. pneumoniae TYPE 1): 12.5 µg/mL (≈ 42.8 µM) | MIC (E. coli NIHJ JC-2): > 100 µg/mL | MIC (K. pneumoniae SR1): > 100 µg/mL | MIC (P. vulgaris CN-329): > 100 µg/mL | MIC (P. aeruginosa A25619): > 100 µg/mL
